In patent US20200237742A1, “Serdexmethylphenidate Conjugates, Compositions And Methods Of Use Thereof” (priority 2018, published 2020):
Structures can show the parent of a compound that is named as a salt.

Tests used:
[1] = system: recreational stimulant abusers; assay: Intravenous abuse potential study, VAS pharmacodynamic assessments; type: in vivo, human
Source text: “Drug liking” score, used herein, is the score used to assess the degree that a human participant likes a drug effect at the time the question is being asked (that is, at the moment). It is scored using a 0 to 100 point bipolar visual analogue scale (VAS) anchored in the center with a neutral anchor of “neither like nor dislike” (score of 50), on the left with “strong disliking” (score of 0) and on the right with “strong liking” (score of 100).
“Euphoria” or “Feeling High” score, used herein, is the term to describe the score used to assess the degree that a human participant is high at the time the question is being asked (that is, at the moment). It is scored using a 0 to 100 point unipolar visual analogue scale (VAS) anchored on the left with “Not at All” (score of 0) and on the right with “Extremely” (score of 100).
“Take Drug Again” score, used herein, is the term to describe the score used to assess the degree that a human participant wants to take the drug again, if given the opportunity, based on his/her opinion now, i.e., at the time the question is being asked. It is scored using a 0 to 100 point unipolar visual analogue scale (VAS) anchored on the left with “Definitely Would Not” (score of 0) and on the right with “Definitely Would” (score of 100).
“Overall Drug Liking” score, used herein, is the term to describe the score used to assess the human subject's global perception of drug liking (i.e., the subjective effects over the whole course of the drug experience including any carryover effects). Subjects respond to the statement “Overall, my liking for this drug is.” The question is scored using a 0-100 point bipolar VAS anchored on the left with “Strong Disliking” (score of 0); “Neither Like nor Dislike” (score of 50) in the middle, and anchored on the right with “Strong Liking” (score of 100). This scale has the advantage of the human subject being relatively less affected or unaffected by acute study drug effects (if any) by the time of the assessment.
“Good Effects” score, used herein, is the term to describe the score used to assess the degree that a human participant is feeling good drug effects at the time the question is being asked (that is, at the moment). Subjects respond to the statement “At this moment, I can feel good drug effects.” It is scored using a 0 to 100 point unipolar visual analogue scale (VAS) anchored on the left with “Not at All” (score of 0) and on the right with “Extremely” (score of 100).
Safety assessments were performed throughout the study.

[2] = system: recreational stimulant abusers; assay: Intravenous study, treatment-emergent adverse events; conditions: SDX Cl 30 mg (N = 31), d-MPH HCl 15 mg (N = 30)
Description: A study was conducted in humans to assess the intravenous abuse potential of serdexmethylphenidate relative to unconjugated d-methylphenidate and placebo in recreational stimulant abusers. This was a Phase 1, randomized, double-blind study in which serdexmethylphenidate and d-methylphenidate were administered intravenously in recreational stimulant users with a history of non-oral abuse. In Part A of the study, subjects (Cohort 1) participated in a dose-escalation phase to determine the optimal dose of intravenous d-methylphenidate based on tolerability and abuse-related pharmacodynamic assessments. […] The doses of serdexmethylphenidate and d-methylphenidate are equivalent with respect to molar amount of d-methylphenidate. FDA-recommended abuse potential measures and blood samples were collected at different times after dosing. Safety assessments were performed throughout the study.

[3] = system: healthy, nondependent, recreational stimulant users with intranasal insufflation experience; assay: Intranasal abuse potential study, VAS pharmacodynamic assessments
Source text: “Ease of Insufflation” VAS is the measure that assesses the difficulty of snorting the study drugs. Subjects will respond to the statement “Snorting this drug was:” The question will be scored using a 0-100 points unipolar VAS anchored on the left with “Very Easy” (score of 0) and anchored on the right with “Very Difficult” (score of 100).
The study consisted of a Screening Period, an in-clinic Drug Discrimination Phase, a Treatment Phase, and a Follow-Up Visit.
Subjects who successfully completed the Screening Period returned to the clinic to complete the Drug Discrimination Phase. […] Subjects who successfully completed the Drug Discrimination Phase remained as inpatients to enter the Treatment Phase. The Drug Discrimination Phase was a double-blind, intranasal, single-dose, 2-treatment, 2-period, 2-sequence, randomized, crossover design.
All subjects were required to fast for at least 8 hours prior to each dose of study drug until approximately 4 hours after each dose. Abuse potential measures and pharmacokinetic samples were collected at different times after the administration of study drug. Subjects who successfully completed the Drug Discrimination Phase and who qualified for the Treatment Phase remained as inpatients to enter the Treatment Phase.
The placebo dose consisted of 80 mg of microcrystalline cellulose to create the same volume.
On dosing days in the Treatment Phase, blood samples were collected for the measurement of the plasma concentrations of SDX, d-methylphenidate (d-MPH), 1-methylphenidate (1-MPH) and ritalinic acid at predose and at 0.25, 0.5, 0.75, 1, 1.5, 2, 3, 4, 5, 6, 7, 8, 9, 10, 12, 16, 24, 36, and 48 hours ±5 minutes after each dose of study drug. […] All VAS pharmacodynamic assessments except Take Drug Again and Overall Drug Liking were performed at 0.25, 0.5, 0.75, 1, 1.5, 2, 3, 4, 5, 6, 7, 8, 10, 12, 24 hours ±5 minutes postdose. In addition, predose assessments of Feeling High, and Drowsiness/Alertness were collected. The Take Drug Again and Overall Drug Liking VAS assessments were performed at 12 and 24 hours ±5 minutes postdose. Ease of Nasal Insufflation scores were completed within 5 minutes after the completion of each intranasal drug administration during the Treatment Phase.

[4] = 12 hours, SDX Cl 30 mg, d-MPH HCl 15 mg
[5] = 12 hours, d-MPH HCl 15 mg vs SDX Cl 30 mg
[6] = 24 hours, d-MPH HCl 15 mg vs SDX Cl 30 mg
[7] = Emax, d-MPH HCl 15 mg vs SDX Cl 30 mg
[8] = d-MPH HCl 15 mg vs SDX Cl 30 mg
[9] = 12 hours, SDX Cl 80 mg, d-MPH HCl 40 mg
[10] = 24 hours, SDX Cl 80 mg, d-MPH HCl 40 mg
[11] = 12 hours, SDX Cl 30 mg vs placebo
[12] = 24 hours, SDX Cl 30 mg vs placebo
[13] = 24 hours, SDX Cl 30 mg, d-MPH HCl 15 mg

Row | SMILES | Median Overall Drug Liking [1, 4] | TEAE: Change in sustained attention [2] | TEAE: Dry mouth [2] | TEAE: Energy increased [2] | TEAE: Euphoric mood [2] | TEAE: Feeling abnormal [2] | TEAE: Feeling hot [2] | TEAE: Feeling jittery [2] | TEAE: Feeling of relaxation [2] | TEAE: Headache [2] | TEAE: Heart rate increased [2] | TEAE: Hyperhidrosis (sweaty hands) [2] | TEAE: Hypervigilance [2] | TEAE: Nausea [2] | TEAE: Palpitations [2] | TEAE: Paraesthesia (tingling) [2] | TEAE: Sinus tachycardia [2] | TEAE: Somnolence [2] | TEAE: Tachycardia [2] | Median Overall Drug Liking [3, 9] | also measured
1 | COC(=O)[C@H](c1ccccc1)[C@H]1CCCCN1 [d-methylphenidate hydrochloride, d-threo-methylphenidate hydrochloride] | 73.0 | 2 (6.7) n (%) | 6 (20.0) n (%) | 1 (3.3) n (%) | 17 (56.7) n (%) | 2 (6.7) n (%) | 6 (20.0) n (%) | 2 (6.7) n (%) | 1 (3.3) n (%) | 1 (3.3) n (%) | 5 (16.7) n (%) | 4 (13.3) n (%) | 10 (33.3) n (%) | 3 (10.0) n (%) | 2 (6.7) n (%) | 2 (6.7) n (%) | 4 (13.3) n (%) | 4 (13.3) n (%) | 4 (13.3) n (%) | 87 | Mean Overall Drug Liking [1, 4]: 68.0; Mean Difference Take Drug Again, B vs A [1, 5]: 43.3; Overall Drug Liking, Median difference B vs A [1, 5]: 16.0; Mean Difference Take Drug Again, B vs A [1, 6]: 39.2; Overall Drug Liking, Median difference B vs A [1, 6]: 13.5; Mean Difference Take Drug Again, B vs A [1, 7]: 43.1; Overall Drug Liking, Median difference B vs A [1, 7]: 18.0; Feeling High Emax, Median difference B vs A [1, 8]: 67.0; Good Effects Emax, Median difference B vs A [1, 8]: 73.0; Median Difference Drug Liking Emax, B vs A ([1]; d-MPH HCl 15 mg vs SDX Cl 30 mg, bipolar VAS): 29.0; Median Take Drug Again [3, 9]: 91; Median Overall Drug Liking [3, 10]: 82; Median Take Drug Again [3, 10]: 94; Mean Difference Overall Drug Liking, B vs A ([3]; 24 hours, d-MPH HCl 40 mg vs SDX Cl 80 mg): statistically higher
2 | COC(=O)[C@H](c1ccccc1)[C@H]1CCCCN1C(=O)OC[n+]1cccc(C(=O)N[C@@H](CO)C(=O)O)c1.[Cl-] [serdexmethylphenidate chloride] | 50.0 | 0 (0.0) n (%) | 0 (0.0) n (%) | 2 (6.5) n (%) | 4 (12.9) n (%) | 1 (3.2) n (%) | 2 (6.5) n (%) | 0 (0.0) n (%) | 0 (0.0) n (%) | 1 (3.2) n (%) | 0 (0.0) n (%) | 1 (3.2) n (%) | 4 (12.9) n (%) | 0 (0.0) n (%) | 0 (0.0) n (%) | 0 (0.0) n (%) | 0 (0.0) n (%) | 1 (3.2) n (%) | 0 (0.0) n (%) | 58 | Mean Difference Take Drug Again, A vs C [1, 11]: 9.1; Overall Drug Liking, Mean difference A vs C [1, 11]: 2.8; Median Take Drug Again [1, 4]: 0.0; Mean Difference Take Drug Again, A vs C [1, 12]: 1.4; Overall Drug Liking, Mean difference A vs C [1, 12]: 1.2; Median Overall Drug Liking [1, 13]: 50.0; Median Take Drug Again [1, 13]: 0.0; Mean Difference Take Drug Again, A vs C ([1]; Emax, SDX Cl 30 mg vs placebo): 6.0; Overall Drug Liking, Mean difference A vs C ([1]; Emax, SDX Cl 30 mg vs placebo): 1.4; Feeling High Emax, Mean difference A vs C ([1]; SDX Cl 30 mg vs placebo): 3.4; Good Effects Emax, Mean difference A vs C ([1]; SDX Cl 30 mg vs placebo): 2.2; Median Difference Drug Liking Emax, A vs C ([1]; SDX Cl 30 mg vs placebo, bipolar VAS): 0.5; Median Take Drug Again [3, 9]: 51; Mean Overall Drug Liking [3, 10]: 59.0; Median Overall Drug Liking [3, 10]: 55; Median Take Drug Again [3, 10]: 50
